In US12123010B2, “Plants having increased tolerance to herbicides” (BASF SE, priority 2017, dated 2024):

Assays:
[1] = system: Transgenic T2 Arabidopsis plants and ARBTH WT MC24 non-transgenic; assay: Greenhouse post spray test, injury 14 DAT (Tables ii, iii); type: in vivo, Arabidopsis thaliana; conditions: Arabidopsis thaliana, 336 h, Table ii; for pest or weed control at 50 g/ha: 50 g ai/ha; for pest or weed control at 100 g/ha: 100 g ai/ha; for pest or weed control at 200 g/ha: 200 g ai/ha;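 for all read-outs here: value is percent injury to the sprayed plants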
[2] = system: Transgenic T2 Arabidopsis plants harboring PPO inhibitor tolerance trait; assay: Lab based germination assay in 48-well plates (Table i); type: in vivo, Arabidopsis thaliana; conditions: construct AMATU_PPO2_TP_hemG (Escherichia coli); in comparison to wild type plants
[3] = molecular target: Wild Type PPO Enzyme (Amaranthus PPO2, SEQ ID NO: 1) (Amaranthus tuberculatus, UniProt Q0NZW9); assay: PPO enzyme assay (recombinant), wild type; type: biochemical
Wild Type PPO Enzyme (Amaranthus PPO2, SEQ ID NO: 1), sequence (Q0NZW9 1-534): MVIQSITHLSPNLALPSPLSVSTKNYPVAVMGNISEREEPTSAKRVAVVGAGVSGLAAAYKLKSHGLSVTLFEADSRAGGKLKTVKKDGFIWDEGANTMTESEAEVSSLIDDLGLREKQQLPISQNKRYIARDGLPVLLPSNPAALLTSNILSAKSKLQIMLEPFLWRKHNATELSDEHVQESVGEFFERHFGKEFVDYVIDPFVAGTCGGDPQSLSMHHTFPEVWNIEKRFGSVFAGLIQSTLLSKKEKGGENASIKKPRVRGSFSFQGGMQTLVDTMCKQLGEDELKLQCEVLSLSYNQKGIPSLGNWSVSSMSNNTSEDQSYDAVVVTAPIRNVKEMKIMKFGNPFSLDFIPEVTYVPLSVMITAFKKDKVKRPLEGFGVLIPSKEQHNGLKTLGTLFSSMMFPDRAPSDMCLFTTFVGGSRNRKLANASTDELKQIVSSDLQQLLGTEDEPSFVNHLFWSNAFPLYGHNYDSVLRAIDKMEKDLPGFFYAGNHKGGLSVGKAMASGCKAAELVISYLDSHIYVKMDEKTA

[4] = system: Variant PPO Enzyme R128A, F420M (Amaranthus PPO2); type: biochemical; conditions: variant R128A, F420M vs wild type

Work on `Cn1c(C(F)(F)F)cc(=O)n(-c2nc(Oc3cccnc3OCC(=O)O)c(Cl)cc2F)c1=O` [Uracilpyridine 3, 2-[[3-[[3-chloro-5-fluoro-6-[3-methyl-2,6-dioxo-4-(trifluoromethyl)pyrimidin-1-yl]-2-pyridyl]oxy]-2-pyridyl]oxy]acetic acid] yielded a pest or weed control at 1 g/ha ([1]; AMATU_PPO2_WT event Q, 1 g ai/ha) of 48%, a pest or weed control at 5 g/ha ([1]; AMATU_PPO2_WT event Q, 5 g ai/ha) of 80% and a pest or weed control at 10 g/ha ([1]; AMATU_PPO2_WT event Q, 10 g ai/ha) of 100%. It also gave a pest or weed control at 30 g/ha ([1]; AMATU_PPO2_WT event Q, 30 g ai/ha) of 100%, a pest or weed control at 1 g/ha ([1]; ARBTH WT MC24 non-transgenic, 1 g ai/ha + 1% MSO) of 88% and a pest or weed control at 5 g/ha ([1]; ARBTH WT MC24 non-transgenic, 5 g ai/ha + 1% MSO) of 100%. For the same compound, the pest or weed control at 10 g/ha ([1]; ARBTH WT MC24 non-transgenic, 10 g ai/ha + 1% MSO) was 100%, the pest or weed control at 30 g/ha ([1]; ARBTH WT MC24 non-transgenic, 30 g ai/ha + 1% MSO) was 100% and the pest or weed control at 80 g/ha ([1]; ARBTH WT MC24 non-transgenic, 80 g ai/ha + 1% MSO) was 100%. It also gave a pest or weed control at 5 g/ha ([1]; ARBTH_PPO1_S305L_Y426M event O, 5 g ai/ha) of 0%, a pest or weed control at 10 g/ha ([1]; ARBTH_PPO1_S305L_Y426M event O, 10 g ai/ha) of 0% and a pest or weed control at 30 g/ha ([1]; ARBTH_PPO1_S305L_Y426M event O, 30 g ai/ha) of 49%. It also gave a pest or weed control at 80 g/ha ([1]; ARBTH_PPO1_S305L_Y426M event O, 80 g ai/ha) of 13%, a pest or weed control at 1 g/ha ([1]; ARBTH_PPO1_WT event Q, 1 g ai/ha) of 10% and a pest or weed control at 5 g/ha ([1]; ARBTH_PPO1_WT event Q, 5 g ai/ha) of 83%. For the same compound, the pest or weed control at 10 g/ha ([1]; ARBTH_PPO1_WT event Q, 10 g ai/ha) was 98%, the pest or weed control at 30 g/ha ([1]; ARBTH_PPO1_WT event Q, 30 g ai/ha) was 100% and the “Tolerance Factor” value [2] was 1600.

For `CCOC(=O)COc1ccccc1Oc1nc(-n2c(=O)cc(C(F)(F)F)n(C)c2=O)ccc1Br` [Uracilpyridine 6, ethyl 2-[2-[[3-bromo-6-[3-methyl-2,6-dioxo-4-(trifluoromethyl)pyrimidin-1-yl]-2-pyridyl]oxy]phenoxy]acetate], the pest or weed control at 50 g/ha ([1]; ALOMY_PPO2_R137L_F438V event F) was 0%, the pest or weed control at 100 g/ha ([1]; ALOMY_PPO2_R137L_F438V event F) was 0% and the pest or weed control at 200 g/ha ([1]; ALOMY_PPO2_R137L_F438V event F) was 18%. For the same compound, the pest or weed control at 50 g/ha ([1]; ALOMY_PPO2_R137L_F438V event G) was 0%, the pest or weed control at 100 g/ha ([1]; ALOMY_PPO2_R137L_F438V event G) was 0% and the pest or weed control at 200 g/ha ([1]; ALOMY_PPO2_R137L_F438V event G) was 0%. The pest or weed control at 50 g/ha ([1]; AMATU_PPO2_L397E_F420V event D) was 0%, the pest or weed control at 100 g/ha ([1]; AMATU_PPO2_L397E_F420V event D) was 0% and the pest or weed control at 200 g/ha ([1]; AMATU_PPO2_L397E_F420V event D) was 8%. For the same compound, the pest or weed control at 50 g/ha ([1]; AMATU_PPO2_L397E_F420V event L) was 0%, the pest or weed control at 100 g/ha ([1]; AMATU_PPO2_L397E_F420V event L) was 0% and the pest or weed control at 200 g/ha ([1]; AMATU_PPO2_L397E_F420V event L) was 15%. It also gave a pest or weed control at 50 g/ha ([1]; AMATU_PPO2_R128A_F420V event A) of 0%, a pest or weed control at 100 g/ha ([1]; AMATU_PPO2_R128A_F420V event A) of 43% and a pest or weed control at 200 g/ha ([1]; AMATU_PPO2_R128A_F420V event A) of 30%. For the same compound, the pest or weed control at 50 g/ha ([1]; AMATU_PPO2_R128A_F420V event D) was 0%, the pest or weed control at 100 g/ha ([1]; AMATU_PPO2_R128A_F420V event D) was 38% and the pest or weed control at 200 g/ha ([1]; AMATU_PPO2_R128A_F420V event D) was 28%.

Compound `CCOC(=O)COc1ccc(F)cc1Oc1nc(-n2c(=O)cc(C(F)(F)F)n(C)c2=O)c(F)cc1Cl` [Uracilpyridine 7, ethyl 2-[2-[[3-chloro-5-fluoro-6-[3-methyl-2,6-dioxo-4-(trifluoromethyl)pyrimidin-1-yl]-2-pyridyl]oxy]-4-fluoro-phenoxy]acetate] has a pest or weed control at 50 g/ha ([1]; ALOMY_PPO2_R137L_F438V event F) of 0%, a pest or weed control at 100 g/ha ([1]; ALOMY_PPO2_R137L_F438V event F) of 18% and a pest or weed control at 200 g/ha ([1]; ALOMY_PPO2_R137L_F438V event F) of 13%. For the same compound, the pest or weed control at 50 g/ha ([1]; ALOMY_PPO2_R137L_F438V event G) was 0%, the pest or weed control at 100 g/ha ([1]; ALOMY_PPO2_R137L_F438V event G) was 0% and the pest or weed control at 200 g/ha ([1]; ALOMY_PPO2_R137L_F438V event G) was 8%. For the same compound, the pest or weed control at 50 g/ha ([1]; AMATU_PPO2_L397E_F420V event D) was 0%, the pest or weed control at 100 g/ha ([1]; AMATU_PPO2_L397E_F420V event D) was 0% and the pest or weed control at 200 g/ha ([1]; AMATU_PPO2_L397E_F420V event D) was 10%. For the same compound, the pest or weed control at 50 g/ha ([1]; AMATU_PPO2_L397E_F420V event L) was 0%, the pest or weed control at 100 g/ha ([1]; AMATU_PPO2_L397E_F420V event L) was 0% and the pest or weed control at 200 g/ha ([1]; AMATU_PPO2_L397E_F420V event L) was 33%. For the same compound, the pest or weed control at 50 g/ha ([1]; AMATU_PPO2_R128A_F420V event A) was 13%, the pest or weed control at 100 g/ha ([1]; AMATU_PPO2_R128A_F420V event A) was 50% and the pest or weed control at 200 g/ha ([1]; AMATU_PPO2_R128A_F420V event A) was 70%. It also gave a pest or weed control at 50 g/ha ([1]; AMATU_PPO2_R128A_F420V event D) of 33%, a pest or weed control at 100 g/ha ([1]; AMATU_PPO2_R128A_F420V event D) of 65% and a pest or weed control at 200 g/ha ([1]; AMATU_PPO2_R128A_F420V event D) of 75%.

In the case of `CCOC(=O)COc1ccccc1Oc1nc(-n2c(=O)c(C)c(C(F)(F)F)n(C)c2=O)c(F)cc1Cl` [Uracilpyridine 12, ethyl 2-[2-[[3-chloro-6-[3,5-dimethyl-2,6-dioxo-4-(trifluoromethyl)pyrimidin-1-yl]-5-fluoro-2-pyridyl]oxy]phenoxy]acetate], the IC50 [3] is reported as 0.212 nM and the “Tolerance Factor (R/S)” value [4] is reported as 536.

For `C=CCOC(=O)COc1ncccc1Oc1nc(-n2c(=O)cc(C(F)(F)F)n(C)c2=O)c(F)cc1Cl` [Uracilpyridine 13, allyl 2-[[3-[[3-chloro-5-fluoro-6-[3-methyl-2,6-dioxo-4-(trifluoromethyl)pyrimidin-1-yl]-2-pyridyl]oxy]-2-pyridyl]oxy]acetate], the IC50 [3] was 0.218 nM and the “Tolerance Factor (R/S)” value [4] was 421.

For `C#CCOC(=O)COc1ncccc1Oc1nc(-n2c(=O)cc(C(F)(F)F)n(C)c2=O)c(F)cc1Cl` [Uracilpyridine 14, prop-2-ynyl 2-[[3-[[3-chloro-5-fluoro-6-[3-methyl-2,6-dioxo-4-(trifluoromethyl)pyrimidin-1-yl]-2-pyridyl]oxy]-2-pyridyl]oxy]acetate], the IC50 [3] was 0.234 nM and the “Tolerance Factor (R/S)” value [4] was 675.

In the case of `Cn1c(C(F)(F)F)cc(=O)n(-c2nc(Oc3cccnc3OCC(=O)OCC3CC3)c(Cl)cc2F)c1=O` [Uracilpyridine 15, cyclopropylmethyl 2-[[3-[[3-chloro-5-fluoro-6-[3-methyl-2,6-dioxo-4-(trifluoromethyl)pyrimidin-1-yl]-2-pyridyl]oxy]-2-pyridyl]oxy]acetate], the IC50 [3] is reported as 0.22 nM and the “Tolerance Factor (R/S)” value [4] is reported as 195.

In the case of `Cn1c(C(F)(F)F)cc(=O)n(-c2nc(Oc3cccnc3OCC(=O)OCC(F)F)c(Cl)cc2F)c1=O` [Uracilpyridine 16, 2,2-difluoroethyl 2-[[3-[[3-chloro-5-fluoro-6-[3-methyl-2,6-dioxo-4-(trifluoromethyl)pyrimidin-1-yl]-2-pyridyl]oxy]-2-pyridyl]oxy]acetate], the IC50 [3] is reported as 0.175 nM and the “Tolerance Factor (R/S)” value [4] is reported as 508.

In the case of `CC(C)COC(=O)COc1ncccc1Oc1nc(-n2c(=O)cc(C(F)(F)F)n(C)c2=O)c(F)cc1Cl` [Uracilpyridine 17, isobutyl 2-[[3-[[3-chloro-5-fluoro-6-[3-methyl-2,6-dioxo-4-(trifluoromethyl)pyrimidin-1-yl]-2-pyridyl]oxy]-2-pyridyl]oxy]acetate], the IC50 [3] is reported as 0.113 nM and the “Tolerance Factor (R/S)” value [4] is reported as 406.

For `CCOC(=O)COC(=O)COc1ncccc1Oc1nc(-n2c(=O)cc(C(F)(F)F)n(C)c2=O)c(F)cc1Cl` [Uracilpyridine 18, (2-ethoxy-2-oxo-ethyl) 2-[[3-[[3-chloro-5-fluoro-6-[3-methyl-2,6-dioxo-4-(trifluoromethyl)pyrimidin-1-yl]-2-pyridyl]oxy]-2-pyridyl]oxy]acetate], the IC50 [3] was 0.154 nM and the “Tolerance Factor (R/S)” value [4] was 753.

`COCCOC(=O)COc1ncccc1Oc1nc(-n2c(=O)cc(C(F)(F)F)n(C)c2=O)c(F)cc1Cl` [Uracilpyridine 19, 2-methoxyethyl 2-[[3-[[3-chloro-5-fluoro-6-[3-methyl-2,6-dioxo-4-(trifluoromethyl)pyrimidin-1-yl]-2-pyridyl]oxy]-2-pyridyl]oxy]acetate] was tested, and the IC50 [3] was 0.248 nM and the “Tolerance Factor (R/S)” value [4] was 503.
